Results from patent US9403806B1, “Cognition enhancing compounds and compositions, methods of making, and methods of treating” (NeuroSolis, Inc., priority 2010, dated 2016).
Structures can show the parent of a compound that is named as a salt.

Legend:
human FMO1 Supersomes = target: T1, human FMO1 Supersomes (Homo sapiens, UniProt Q01740); experiment: Metabolism by flavin monoxygenase 1 (FMO1) Supersomes; format: in vitro ADME; conditions: after 6 hours (FIG. 2)
T1 construct: purchased BD Biosciences 456241
T1 sequence (Q01740 1-532): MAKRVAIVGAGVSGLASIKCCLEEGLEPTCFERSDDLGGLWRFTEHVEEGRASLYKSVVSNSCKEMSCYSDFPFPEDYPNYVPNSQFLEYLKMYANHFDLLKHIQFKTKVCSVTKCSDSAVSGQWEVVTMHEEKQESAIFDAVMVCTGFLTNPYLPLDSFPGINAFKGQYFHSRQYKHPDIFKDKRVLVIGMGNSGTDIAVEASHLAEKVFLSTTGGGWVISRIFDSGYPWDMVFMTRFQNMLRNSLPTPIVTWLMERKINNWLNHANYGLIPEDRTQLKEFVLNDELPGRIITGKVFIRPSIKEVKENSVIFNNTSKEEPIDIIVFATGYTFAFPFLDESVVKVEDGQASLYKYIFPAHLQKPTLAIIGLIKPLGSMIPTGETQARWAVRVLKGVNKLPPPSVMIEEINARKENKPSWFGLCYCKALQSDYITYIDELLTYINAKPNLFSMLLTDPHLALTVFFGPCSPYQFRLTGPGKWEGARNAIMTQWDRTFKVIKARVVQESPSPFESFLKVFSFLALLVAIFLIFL
Protocol: […] Aliquots were removed every 10 minutes, and 1% formic acid was added to halt the reaction. Samples were centrifuged, filtered through 0.2 micron spinfilter and the amount of each compound in the supernatants was quantitated using LC/MS/MS.

[1] = target: T2, human muscarinic M1 receptors (Homo sapiens, UniProt P11229); experiment: IP production in A9L cells with human M1 receptors (IPOne TR-FRET), Example 28; format: cell-based; conditions: for huM1/A9L Smax: percentage of maximal stimulation by carbachol; for huM1/A9L ED50 relative to CCh*: potency relative to carbachol at its EC50, semi-quantitative
T2 construct: host or cells: A9L cells
T2 sequence (P11229 1-460): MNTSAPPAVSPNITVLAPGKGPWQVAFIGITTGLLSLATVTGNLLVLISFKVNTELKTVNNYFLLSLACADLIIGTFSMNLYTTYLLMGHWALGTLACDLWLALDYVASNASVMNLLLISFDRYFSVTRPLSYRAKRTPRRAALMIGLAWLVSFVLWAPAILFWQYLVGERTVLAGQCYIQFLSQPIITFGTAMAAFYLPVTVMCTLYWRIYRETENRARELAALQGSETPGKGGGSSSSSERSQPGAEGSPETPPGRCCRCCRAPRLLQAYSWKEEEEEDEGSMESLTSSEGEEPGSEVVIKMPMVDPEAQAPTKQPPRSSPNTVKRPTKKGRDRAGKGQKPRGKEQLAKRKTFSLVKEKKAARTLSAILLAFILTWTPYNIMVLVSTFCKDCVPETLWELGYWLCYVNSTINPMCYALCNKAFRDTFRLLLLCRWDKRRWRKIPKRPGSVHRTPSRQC
Protocol: (§1) Muscarinic M1 and M3 agonist activity was evaluated by measuring the stimulation of inositol phosphate (IP) production in the presence of lithium chloride from A9L cells transfected with expression plasmids containing human muscarinic M1 and M3 receptors, respectively. The cell lines were a gift from Professor W Messer, and the methods were as described in Tejada F R et al. J. Med. Chem. 2006; 49: 7518-31 except that the assay was scaled down to run in 384 well plates, and IP was measured in the cell lysates using the non-isotopic IPOne TR-FRET assay (CIS-BIO, Inc).
(§2) Cells were grown to 90% confluence in 384 well hi-base plates (Greiner Bio-One), compounds were added at suitable concentrations in growth medium containing 10 mM LiCl, buffered with an extra 10 mM HEPES (pH7.4), and incubated for 60 minutes at 37° C. Cells were lysed and assayed for IP following the manufacturer's instructions.
(§3) The value for a full agonist is 100%, while partial agonists give values below 100%.

[2] = target: T3, human muscarinic M3 receptors (Homo sapiens, UniProt P20309); experiment: IP production in A9L cells with human M3 receptors (IPOne TR-FRET), Example 28; format: cell-based; conditions: for huM3/A9L Smax: percentage of maximal stimulation by carbachol; for huM3/A9L ED50 relative to CCh*: potency relative to carbachol at its EC50, semi-quantitative
T3 construct: host or cells: A9L cells
Protocol: as §1, §2, §3

[3] = Metabolites in serum and urine of dosed rats (LC-MS); format: in vivo; conditions: rat serum or urine, 10 mg/kg po
Protocol: Oxadiazoles disclosed herein as well as other oxadiazoles were investigated to determine the formation of metabolites. Animals were dosed, blood taken, serum prepared, serum proteins precipitated and ultrafiltrates prepared as described in Example 6. In separate experiments, urine was collected from rats for 16-24 hours after dosing, using standard metabolic cages. The urine container and collected urine were maintained at 4° C. Urine was lyophilized, taken back into water. The uftrafiltrate was prepared by adding formic acid to a final concentration of 1% to the urine samples, then filtered through a 0.2 um nylon membrane. The ultrafiltrate was subjected to LC-MS analysis. Instead of measuring the product ions in Q3, manual Q1 scans of the liquid chromatograph were undertaken, seeking parent ions of potential metabolites of the compounds. The criteria for identifying metabolites were as follows: (1) the ion should be present in the sera or urines of dosed rats, but not in sera or urines from non-dosed rats (2) the ion should be identifiable as a metabolic derivative of the dosed compound (e.g. loss of a functional chemical moiety, addition of a hydroxyl group or a glucuronic acid moiety, etc). Metabolites were determined not to be present if no compound meeting the above criteria could be detected in serum or urine.

[4] = Blood and brain concentrations (rats), oral gavage; format: in vivo, Long-Evans Hooded rats; conditions: rat, 10 mg/kg po, 1 hr, relative to MCD-386 = 1.00
Protocol: Long-Evans Hooded rats (Charles River: male, 250-350 g) were dosed with solutions of test compounds in PBS by oral gavage. At the desired time after dosing, the animals were anesthetized with isoflurane, and then euthanized by cervical dislocation. Blood was obtained by cardiac puncture, transferred to a 1.5 mL microcentrifuge tube containing 15U Heparin, and the plasma recovered after centrifugation. Brains were dissected, weighed, immediately chilled to 4° C., and homogenized using a PowerGen 125 homogenizer in five volumes of ice-cold 2% formic acid. Proteins were precipitated from plasma and brain homogenate with two and five volumes respectively of ice-cold 2% formic acid and clarified by centrifugation. The supernatant was ultra-filtered by centrifugation through a 3K MWCO spin column (Pall Life Sciences), following the manufacturer's instructions. The concentration of compound in the ultra-filtrate was subjected to reverse-phase liquid chromatography using a 150×2.1 mm Agilent C8 reverse-phase column on a Shimadzu Prominence LC, eluting the compounds with a gradient of 2% to 50% of acetonitrile+0.1% formic acid for compound MI-50,382, or an isocratic flow of 2% acetonitrile+0.1% formic acid for the rest of the compounds listed. The concentration of the compound in the column effluent was measured using an Applied Biosystems API-3200 triple quadrupole mass spectrometer equipped with an electrospray sample injection system. The counts of the characteristic parent and product ions of each test compound were converted to concentration units by comparison with a standard calibration curve.

[5] = system: salivary gland inositol phosphate; experiment: In vivo tissue inositol phosphate signaling pathway activation, salivary gland; set-up: species or system Long Evans Hooded rats; conditions: rat; for block of increase in salivary gland inositol phosphate caused by Compound 3: Compound 3 1 mg/kg; for inhibition of salivary gland inositol phosphate response to MCD-386: MCD-386 50 mg/kg, antagonist 0.3 mg/kg (FIG. 7)
Protocol: (§4) Experimental compounds or drug substances were administered using standard techniques to Long Evans Hooded rats weighing 225 to 350 grams, and which had been pretreated with a subcutaneous injection of lithium chloride at a suitable dose between 3 and 10 mmoles per kg. At suitable times the animals were briefly anesthetized using 5% isoflurane and euthanized by decapitation. The brains and submaxillary salivary glands were rapidly dissected out, and the hippocampuses were dissected from the brains. The dissected tissues were homogenized in a suitable volume of ice-cold phosphate-buffered saline containing 10 mM lithium chloride, pH7.4, using a tissue homogenizer, and used immediately or frozen in aliquots at −80 deg C. for future use. The concentration of inositol-1-phosphate was determined in the homogenates using the IPOne TR-FRET assay (CisBio cat no 621PAPEB), following the manufacturer's instruction

anesthetized rats = experiment: Salivation after iontophoretic transdermal co-delivery of agonist and antagonist; format: in vivo, Long Evans Hooded rats; conditions: anesthetized rat, one patch with 1 mg Compound 3 plus 0.01 mg antagonist
Protocol: Experimental compounds and drug substances were delivered transdermally in rats using iontophoresis as follows. The fur was shaved from the backs of Long Evans Hooded rats weighing 225 to 325 grams, using electric clippers. Experimental compounds and drug substances were formulated at suitable concentrations an aqueous mixture of the following composition:
The polyvinyl alcohol/water was heated to 95 deg C. until it became clear, then the other constituents were added and mixed well. The mixture was introduced into suitable molds containing a disc-shaped cavity 2.2 cm diameter and 2.2 mm deep. Molds may be fabricated using two glass sheets separated by a silicone rubber sheet with suitable sized cavities and filling ports cut-outs. The molds were subject to 3 freeze-thaw cycles at −80 deg C. and 20 deg C. until a firm cryogel was obtained. The gels were separated from the molds and trimmed into a circular shape. The gel was placed in a silicone rubber casing with one face in contact with a circular silver foil anodic electrode (22 mm dia/250 microns thick), and the assembly was placed on the shaved skin of the rat such that the other face was in contact with the skin on one side of the back of the rat. The rubber casing formed a seal over and around the gel/electrode assembly. […] This was placed on the other side of the shaved back of the rat, the edges of the gel discs being about 20 mm apart at their nearest point. A DC voltage was applied across the two patches from a constant-current DC power supply and the voltage adjusted to obtain the desired current, such that the skin of the animal completed the electrical circuit.
The devices were placed on shaved backs of anesthetized rats and salivation was measured.
(§5) The animals were placed slightly head-down on an inclined, heated ramp. Rectal temperature was monitored using a thermocouple and the temperature of the heating pad was adjusted manually to maintain normal body temperature. Saliva was collected from the mouth by absorption onto pre-weighed slips of filter paper. The filter paper was changed periodically and the amount of saliva was measured by weighing the filter paper slips

[6] = system: hippocampal inositol phosphate; experiment: In vivo tissue inositol phosphate signaling pathway activation, hippocampus; set-up: species or system Long Evans Hooded rats; conditions: rat, Compound 3 1 mg/kg; for effect on increase in hippocampal inositol phosphate caused by Compound 3: antagonist 0.03 mg/kg
Protocol: as §4

anesthetized normal rats = experiment: In vivo measurement of salivation; set-up: species or system Long Evans Hooded rats; conditions: rats
Protocol: as §5, with “Suitable doses of test compounds or drug substances were administered using standard techniques to Long Evans Hooded rats weighing 225 to 350 grams, or CD-1 mice weighing 30 to 50 grams, which had been anesthetized using 2-3.5%% of isoflurane in oxygen. The animals” for “The animals”

[7] = antagonist 0.03 mg/kg (FIGS. 8C, 8D)

T3 sequence (P20309 whole entry): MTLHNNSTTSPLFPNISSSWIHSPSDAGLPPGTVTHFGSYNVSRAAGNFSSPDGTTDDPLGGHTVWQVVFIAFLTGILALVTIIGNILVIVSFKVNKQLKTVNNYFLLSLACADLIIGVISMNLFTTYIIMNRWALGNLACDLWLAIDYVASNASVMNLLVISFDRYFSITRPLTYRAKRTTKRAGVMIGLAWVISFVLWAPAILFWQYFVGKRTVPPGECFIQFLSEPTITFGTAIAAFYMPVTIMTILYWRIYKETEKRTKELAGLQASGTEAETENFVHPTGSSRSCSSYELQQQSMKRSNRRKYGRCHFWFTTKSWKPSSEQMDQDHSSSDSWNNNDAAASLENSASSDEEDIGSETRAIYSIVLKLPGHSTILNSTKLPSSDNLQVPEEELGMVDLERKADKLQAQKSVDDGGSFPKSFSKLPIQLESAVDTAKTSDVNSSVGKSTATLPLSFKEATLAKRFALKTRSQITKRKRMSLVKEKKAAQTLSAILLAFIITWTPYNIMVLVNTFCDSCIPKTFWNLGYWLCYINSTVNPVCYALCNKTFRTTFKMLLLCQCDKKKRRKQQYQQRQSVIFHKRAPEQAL

For “3-methyl-5-(quinuclidin-3-yl)-1,2,4-oxadiazole [Compound 37]”, the “PAMPA Permeability Coefficient (×10^6)” value (PAMPA test, Example 34; Table 14) was 3.02 ×10^6, the “extent of metabolism in FMO Supersomes (in words)” value (human FMO1 Supersomes) was “almost completely metabolized” and the “selectivity between M1 and M3 receptors” value ([1]; huM1 versus huM3 A9L cells) was “essentially non-selective between M1 and M3 receptors”. For the same compound, the “huM1/A9L Smax” value [1] was 50-100%, the “huM1/A9L ED50 relative to CCh*” value [1] was “++ (++ potency >10x CCh)” and the “huM3/A9L Smax” value [2] was 50-100%. The “huM3/A9L ED50 relative to CCh*” value [2] was “++ (++ potency >10x CCh)”.

For [2H]C([2H])([2H])C([2H])([2H])c1noc(C2CN=CNC2)n1 (stereo not shown) [Compound 2c, 3-(1,1,2,2,2-d5-ethyl)-5-(1,4,5,6-tetrahydropyrimidin-5-yl)-1,2,4-oxadiazole hydrochloride], the “Presence of metabolites (10 mg/kg po)” value [3] was “No” and the “Brain Cmax (10 mg/kg po) 1 hr MCD-386 = 1.00” value [4] was 0.61.

For [2H]C([2H])(C)c1noc(C2CN=CNC2)n1 (stereo not shown) [Compound 6c, 3-(1,1-d2-ethyl)-5-(1,4,5,6-tetrahydropyrimidin-5-yl)-1,2,4-oxadiazole hydrochloride], the “Presence of metabolites (10 mg/kg po)” value [3] was “No” and the “Brain Cmax (10 mg/kg po) 1 hr MCD-386 = 1.00” value [4] was 0.82.

In the case of Cc1noc(C2(F)CCCNC2)n1 (stereo not shown) [Compound 35, 5-(3-fluoropiperidin-3-yl)-3-methyl-1,2,4-oxadiazole], the Papp (PAMPA test, Example 34; PAMPA) is reported as 16.3 ×10⁻⁶ cm/s, the “huM1/A9L Smax” value [1] is reported as 81% and the “huM1/A9L ED50 relative to CCh*” value [1] is reported as “− (− potency <0.5-0.1x CCh)”. The “huM3/A9L Smax” value [2] was 70% and the “huM3/A9L ED50 relative to CCh*” value [2] was “−− (−− potency <0.1x CCh)”.

For C[N+]1(C)[C@@H]2C[C@@H](OC(=O)[C@H](CO)c3ccccc3)C[C@H]1[C@@H]1O[C@@H]12 [NMS], the “block of increase in salivary gland inositol phosphate caused by Compound 3” value (“block of increase” for short) ([5]; antagonist 0.003 mg/kg) was “some breakthrough activation”, the “block of increase” value ([5]; antagonist 0.03 mg/kg to 0.01 mg/kg) was “nearly as effective as 0.1 mg/kg” and the “block of increase” value ([5]; antagonist 0.1 mg/kg (FIGS. 8A, 8B)) was “completely block”. For the same compound, the “reduction of salivation caused by transdermal iontophoretic delivery of Compound 3” value (“reduction of salivation caused” below) (anesthetized rats) was “greatly reduced”, the “effect on increase in inositol phosphate in the hippocampus caused by Compound 3” value ([6]; antagonist 0.1 mg/kg) was “does not inhibit” and the “decrease in salivation caused by Compound 3” value (anesthetized normal rats; Compound 3 0.3 mg/kg (FIG. 12)) was “dose-dependent decrease in salivation”. For the same compound, the “reduction in salivation caused by MCD-386” value (anesthetized normal rats; MCD-386 1 mg/kg (FIG. 13)) was “dose-dependent reduction”.

With C[N+]1(C)CCC(OC(=O)C(O)(c2ccccc2)C2CCCC2)C1 (stereo not shown) [glycopyrrolate] the “block of increase” value [5, 7] was “can block”, the “inhibition of salivary gland inositol phosphate response to MCD-386” value [5] was “virtually completed inhibited” and the “reduction of salivation caused” value (anesthetized rats) was “greatly reduced”. The “effect on increase in hippocampal inositol phosphate caused by Compound 3” value [6] was “without blocking the increase in hippocampal inositol phosphate”.

For CC(C)[N+](C)(CCOC(=O)C1c2ccccc2Oc2ccccc21)C(C)C [propantheline], the “block of increase” value [5, 7] was “can block”, the “inhibition of salivary gland inositol phosphate response to MCD-386” value [5] was “virtually completed inhibited” and the “reduction of salivation caused” value (anesthetized rats) was “greatly reduced”. The “effect on increase in hippocampal inositol phosphate caused by Compound 3” value [6] was “without blocking the increase in hippocampal inositol phosphate”.
